Results reported in patent US20260008750A1, “COMPOUNDS, COMPOSITIONS, AND METHODS FOR REDUCING PRODUCTION OF TRIMETHYLAMINE” (The Cleveland Clinic Foundation, priority 2022, published 2026).
Counter-ions that a name gives are not always drawn.

target: recombinant CutC/D (choline TMA lyase) (Proteus mirabilis, UniProt B4EYG1); test: Choline TMA lyase enzymatic activity assay (d9-choline to d9-TMA) in clarified lysate; assay type: biochemical, P. mirabilis; settings: clarified lysate 5 mg/mL of E. coli expressing cutC/cutD; 300 μM d9-choline; 2 hours at 22° C.; d9-TMA by mass spectrometry
Protocol: Full-length, recombinant CutC/D was expressed through the use of competent E. coli cells transformed with the expression plasmids encoding for the cutC and cutD genes from P. mirabilis as described (Wang Z et al., Cell 2015 Dec. 17; 163(7):1585-95). CutC/D over-expressing cells were grown in nutrient-rich LB medium with the addition of ampicillin (100 μg/mL). The cell pellets were kept on ice and re-suspended in the lysis buffer: 200 mM HEPES, 50 mM NaCl, 10 mM MgCl2, pH 8.0. Clarified lysate was aliquoted and flash frozen for storage at −80° C. until use.
Choline TMA lyase enzymatic activity assays were conducted to measure the conversion of isotope-labeled do-choline to do-TMA. Upon thawing an aliquot of frozen clarified lysate on ice and gentle mixing, clarified lysate was diluted to 5 mg/mL in lysis buffer and the necessary co-factors were added (final concentration: 1 mM SAM, 10 mM NaDT, and 2 mM NADH). Potential inhibitor compounds (typically dissolved in H2O) were serially diluted (10-fold) and added to individual reaction mixtures (done in triplicate). The mixture was then allowed to incubate for at least 15 minutes at 22° C. before the addition of substrate (300 μM final do-choline) to initiate the reaction, which was carried out for 2 hours at room temperature (22° C.) in the dark in gas tight sealed reaction vials. The reactions were quenched with the addition of 200 μL of 1 M NaOH and 0.5 μM of the internal standard ([^13C3^15N1]TMA), vortexing and placement in ice. d9-TMA production was quantified using mass spectrometry by measuring the peak area ratio of the precursor to product ion transition of d9-TMA (m/z 69→49) to the internal standard [^13C3^15N1]TMA (m/z 64→47).

recombinant CutC/D (choline TMA lyase), sequence (B4EYG1 1-1142): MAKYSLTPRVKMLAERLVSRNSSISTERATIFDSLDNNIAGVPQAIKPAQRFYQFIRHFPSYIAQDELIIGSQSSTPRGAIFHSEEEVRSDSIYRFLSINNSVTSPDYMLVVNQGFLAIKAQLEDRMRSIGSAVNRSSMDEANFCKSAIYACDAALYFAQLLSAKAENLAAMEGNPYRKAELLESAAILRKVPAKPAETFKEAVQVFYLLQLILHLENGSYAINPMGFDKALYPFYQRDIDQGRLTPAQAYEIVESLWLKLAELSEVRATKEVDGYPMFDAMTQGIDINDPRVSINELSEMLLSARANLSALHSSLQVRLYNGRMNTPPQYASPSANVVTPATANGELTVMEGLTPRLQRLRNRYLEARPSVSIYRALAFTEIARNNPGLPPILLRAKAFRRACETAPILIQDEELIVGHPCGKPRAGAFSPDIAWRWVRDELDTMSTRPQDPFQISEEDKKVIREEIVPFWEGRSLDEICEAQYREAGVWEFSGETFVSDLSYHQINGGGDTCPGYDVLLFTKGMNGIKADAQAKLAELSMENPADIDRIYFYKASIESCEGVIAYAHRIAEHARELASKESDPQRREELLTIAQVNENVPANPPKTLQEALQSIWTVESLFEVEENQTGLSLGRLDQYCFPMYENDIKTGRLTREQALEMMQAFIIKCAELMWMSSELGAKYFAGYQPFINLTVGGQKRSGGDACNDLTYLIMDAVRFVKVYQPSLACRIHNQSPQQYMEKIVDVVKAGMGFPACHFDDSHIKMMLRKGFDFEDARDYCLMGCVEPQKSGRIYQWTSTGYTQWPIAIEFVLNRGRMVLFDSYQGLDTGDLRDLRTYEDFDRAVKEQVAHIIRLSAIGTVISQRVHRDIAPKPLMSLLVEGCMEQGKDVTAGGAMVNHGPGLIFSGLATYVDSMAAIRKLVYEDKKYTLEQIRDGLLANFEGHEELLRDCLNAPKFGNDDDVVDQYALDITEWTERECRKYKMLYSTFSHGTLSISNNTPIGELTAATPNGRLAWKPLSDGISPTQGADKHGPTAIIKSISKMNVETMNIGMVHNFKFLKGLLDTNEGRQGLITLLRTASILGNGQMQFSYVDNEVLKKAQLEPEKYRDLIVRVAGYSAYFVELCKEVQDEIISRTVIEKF

| Compound | IC50 [nM] |
| --- | --- |
| C[N+](C)(CF)CCOC(=O)CN [Compound 1, 2-(2-Aminoacetoxy)-N-(fluoromethyl)-N,N-dimethylethanaminium dibromide] | 3.2 |
| CC(C)[C@H](N)C(=O)OCC[N+](C)(C)CF [Compound 2, (S)-2-((2-Amino-3-methylbutanoyl)oxy)-N-(fluoromethyl)-N,N-dimethylethanaminium dibromide] | 52 |
| C[C@H](N)C(=O)OCC[N+](C)(C)CF [Compound 3, (S)-2-((2-Aminopropanoyl)oxy)-N-(fluoromethyl)-N,N-dimethylethanaminium dibromide] | 31 |
| C[N+](C)(CF)CCOC(=O)[C@@H]1CCCN1 [Compound 5, N-(fluoromethyl)-N,N-dimethyl-2-(prolyloxy)ethan-1-aminium chloride hydrochloride] | 6.5 |
| C[N+](C)(CF)CCOC(=O)[C@@H](N)Cc1ccccc1 [Compound 6, 2-((L-phenylalanyl)oxy)-N-(fluoromethyl)-N,N-dimethylethan-1-aminium dibromide] | 18 |
